Assay results: BindingDB's records for doi:10.1021/ml100283h (2011)

Columns and labels:
[1] = target: T1, Cytochrome P450 11B2, mitochondrial (Homo sapiens, UniProt P19099); assay: Inhibition of human CYP11B2 expressed in hamster V79 MZ cells using [3H] 11 deoxycorticosterone as substrate by HPLC radioflow detector
T1 sequence (P19099 whole entry): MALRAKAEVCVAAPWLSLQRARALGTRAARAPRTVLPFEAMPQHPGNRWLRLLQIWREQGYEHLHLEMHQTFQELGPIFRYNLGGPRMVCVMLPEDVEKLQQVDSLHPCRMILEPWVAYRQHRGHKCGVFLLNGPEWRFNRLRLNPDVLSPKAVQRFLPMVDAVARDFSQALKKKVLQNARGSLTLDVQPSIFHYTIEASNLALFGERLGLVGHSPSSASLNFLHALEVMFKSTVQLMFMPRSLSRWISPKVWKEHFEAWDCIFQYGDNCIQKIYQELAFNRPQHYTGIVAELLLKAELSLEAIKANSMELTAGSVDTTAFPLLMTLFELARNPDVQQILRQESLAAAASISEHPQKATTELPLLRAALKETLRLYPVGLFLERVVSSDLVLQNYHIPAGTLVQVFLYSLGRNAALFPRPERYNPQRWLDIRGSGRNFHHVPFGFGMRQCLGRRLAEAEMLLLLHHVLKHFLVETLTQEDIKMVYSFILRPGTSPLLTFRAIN

[2] = target: T2, Cytochrome P450 11B1, mitochondrial (Homo sapiens, UniProt P15538); assay: Inhibition of human CYP11B1 expressed in hamster V79 MZ cells using [3H] 11 deoxycorticosterone as substrate by HPLC radioflow detector
T2 sequence (P15538 whole entry): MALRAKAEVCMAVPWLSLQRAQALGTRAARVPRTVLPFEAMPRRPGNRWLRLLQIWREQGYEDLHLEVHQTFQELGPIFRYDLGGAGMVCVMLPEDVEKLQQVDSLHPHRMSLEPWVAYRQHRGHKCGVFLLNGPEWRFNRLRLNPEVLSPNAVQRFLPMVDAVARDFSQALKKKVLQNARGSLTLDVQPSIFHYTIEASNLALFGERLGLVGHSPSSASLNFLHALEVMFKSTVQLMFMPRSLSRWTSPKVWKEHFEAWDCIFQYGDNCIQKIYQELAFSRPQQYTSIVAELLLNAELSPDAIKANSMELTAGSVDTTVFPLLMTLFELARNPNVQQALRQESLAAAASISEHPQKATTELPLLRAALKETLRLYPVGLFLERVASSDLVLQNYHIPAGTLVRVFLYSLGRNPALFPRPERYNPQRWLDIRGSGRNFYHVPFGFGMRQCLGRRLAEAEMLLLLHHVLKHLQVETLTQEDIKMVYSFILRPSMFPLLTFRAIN

**Q.** Which results are given for `c1ccc(-c2ccc(Cn3ccnc3)cn2)cc1` [5-((1H-imidazol-1-yl)methyl)-2-phenylpyridine]?
**A.** IC50 [1]: 2770 nM; IC50 [2]: 152 nM
